In patent US5776892A, “Anti-inflammatory peptides” (Curative Health Services, Inc., priority 1994, dated 1998):
Read-outs that look alike come from different tables or passages of the source. No end group written: not given here.

Assays:
neutrophils [1] = assay: Neutrophil chemotaxis to interleukin-8; format: cell-based; settings: 15 min pre-exposure; read at 1 hr; FIG. 5
Procedure: (§1) The ability of CT-112 (SEQ. ID NO: 1) to inhibit chemotaxis of neutrophils in response to a variety of agents was assessed using Neuroprobe chemotaxis chambers. For these assays, neutrophils were resuspended in Hank's balanced salt solution with Ca^2+ and Mg^2+ to give a 5×10^6 cells/ml suspension after the cells were labeled with 1',7'-bis(2-carboxyethyl)-5-(6)-carboxyfluorescein. The neutrophils were exposed to CT-112 (SEQ. ID NO: 1) for approximately 15 min prior to addition to the chemotaxis chambers. CT-112 (SEQ. ID NO: 1) was present in both the top and bottom of the chambers, and the chemoattractant, either f-Met-Leu-Phe, leukotriene B4 or interleukin-8, was added to the bottom of chamber. Cells which had migrated through the membrane were determined by fluorescence at 530 nm at 1 hr after initiation of the assay.

[2] = test system: mouse bone marrow polychromatic erythrocyte; settings: in vivo
Acute toxicity in mice = format: in vivo, mouse; settings: intravenous 100, 500 or 1,000 mg/kg
Procedure: Acute toxicity of CT-112 (SEQ. ID NO: 1) in mice and rats was assessed. Mice were dosed by intravenous injection with CT-112 (SEQ. ID NO: 1) at 100, 500 or 1,000 mg/kg.

Acute toxicity in rats = format: in vivo, rat; settings: rats, 100, 500 or 1,000 mg/kg
Procedure: Rats were dosed with CT-112 (SEQ. ID NO: 1) at 100, 500 or 1,000 mg/kg. […] All rats returned to normal appearance the day after treatment.

[3] = test system: myeloperoxidase activity in mouse ear; assay: Myeloperoxidase activity in AA-treated mouse ear tissue (PMN marker); format: in vivo; settings: Table II
Procedure: Myeloperoxidase activity in ear tissue was measured as a marker for the presence or absence of polymorphonuclear leukocytes (PMNs) (Barone et al., 1991, J. Neurosci. Res. 29:336-345). After measurement of ear thickness, ears were dissected from the mice and homogenized in 50 mM Tris-HCL, pH 7.4 at 4° C. to give a 10% (w/v) homogenate. Aliquots of the homogenate were used to determine the amount of myeloperoxidase activity present in the tissue using o-dianisidine (Sigma Chem Co., St. Louis Mo.) and hydrogen peroxide as substrates and monitoring chromophore generation at 460 nm (Barone et al., 1991, J. Neurosci. Res. 29:336-345).

neutrophils [4] = assay: Neutrophil chemotaxis to leukotriene B4; format: cell-based; settings: 15 min pre-exposure; read at 1 hr; FIG. 4
Procedure: as §1

neutrophils [5] = assay: Neutrophil chemotaxis to f-Met-Leu-Phe (Neuroprobe chamber, fluorescence 530 nm); format: cell-based; settings: 15 min pre-exposure; read at 1 hr; FIG. 3
Procedure: as §1

[6] = test system: carrageenan-induced peritonitis; assay: Carrageenan-induced peritonitis, LTB4 and PGE2 in peritoneal lavage fluid; format: in vivo, mouse; settings: 60 mg/kg/day; 24 hr post-challenge
Procedure: Mice (C57BL/6UAF, females, 12 weeks old) were implanted with Alzet mini pumps set to deliver 60 mg CT-112/kg/day. Six days post-implantation, the mice were challenged with an intraperitoneal injection of 0.3 ml of carrageenan in PBS (10 mg/ml). The peritoneal cavity was lavaged with 15 ml of Hank's Balanced Salt Solution (Ca^2+ - and Mg^2+ -free) at 24, 48 and 72 hr post-challenge. The lavage fluid was centrifuged (500 g, 5 min), fixed with LeukoStat fixative and stained with LeukoStat staining solution. The slides were analyzed under a microscope for the different types of inflammatory cells, such as macrophages, lymphocytes and neutrophils. At the 48-hr time point, 5 control mice were also lavaged. In a separate study, the peritoneal lavage fluid was analyzed for total leukotriene B4 (LTB4) and prostaglandin E2 (PGE2) content at 24 hr post-challenge (Griswold et al., 1991, Biochem. Pharmacol. 42(4):825-831).

[7] = test system: type-II collagen-induced arthritis; format: in vivo, mouse
Procedure: Mice (DBA/1, 10-12 weeks old, Jackson Laboratories) were randomly assigned to one of 3 groups […]. CT-112 (SEQ. ID NO: 1) was prepared for injection by dissolving in sterile PBS. CT-112 (SEQ. ID NO: 1) was administered daily according to the following schedule: a) Control animals (0.1 ml of sterile PBS) (7 mice); b) Low dose CT-112 (0.1 ml sterile PBS containing 0.25 mg CT-112 at 10 mg/kg) (8 mice); and c) High dose CT-112 (0.1 ml sterile PBS containing 2.5 mg of CT-112 at 100 mg/kg) (8 mice). Three days after initial dosing with CT-112 (SEQ. ID NO: 1), all mice were injected intradermally at the base of the tail with 100 μg of bovine type-II collagen in Freund's complete adjuvant. Mice were monitored daily for the onset of disease, and weighed twice weekly with overall health status noted. Arthritis-affected animals were clinically assessed 5 times per week until 10 weeks post-immunization. Paw measurements were taken 3 times per week. Mice lacking signs of arthritis 10 weeks post-immunizationwere considered disease-free. All mice were pre-bled prior to the start of the trial, subsequently again at 2 and 4 weeks post-immunization, again at the onset of CIA, and finally at the termination of the study. Sera were separated and stored at -80° C. ELISA assays were performed to determine anti-collagen antibody concentrations. Spleen and lymph nodes were removed at sacrifice, and single cell suspensions prepared therefrom. Mitogen responses to Con A and LPS, as well as antigen-specific responses to type-II collagen, were determined. Appropriate statistical comparisons (Chi square, Student's T-test and non-parametric median comparisons) were performed using SPSS/PC software to assess the influence of CT-112 (SEQ. ID NO: 1) at both low and high doses on the incidence, onset, severity and progression of collagen-induced arthritis, the antibody response to collagen, T-cell and B-cell mitogen responses, and T-cell specific responses to type-II collagen.

Question: Which “chemotactic migration of neutrophils to interleukin-8” value (neutrophils [1]) does the source give for “TTSQVRPR [CT-112, octapeptide derived from platelet factor 4]” here?
Answer: not to interleukin-8

Question: What about the micronuclei [2] of the same sequence?
Answer: did not induce a significant increase in micronuclei

Question: What about the lesions at necropsy (Acute toxicity in mice) of the same sequence?
Answer: No lesions were visible at necropsy

Question: And the “mean body weight and mean body weight gain vs control” value (Acute toxicity in mice)?
Answer: no statistical differences

Question: What about the clinical effects (Acute toxicity in mice; one mouse at 500 and two at 1,000 mg/kg, day of treatment) of the same sequence?
Answer: Minimal transient clinical effects (hypoactivity and hypersensitivity)

Question: And the lesions at necropsy (Acute toxicity in rats)?
Answer: No lesions were visible at necropsy

Question: What about the “mean body weight and mean body weight gain vs control” value (Acute toxicity in rats) of the same sequence?
Answer: no statistical differences

Question: What about the clinical effects (Acute toxicity in rats; several rats at 500 and 1,000 mg/kg, day of treatment) of the same sequence?
Answer: Transient clinical effects (hypoactivity, hypersensitiviy, staggered gait, cyanosis and absence of righting reflex)

Question: And the “Myeloperoxidase Activity” value ([3]; 0.05 mg/animal/day minipump)?
Answer: 19.6 ± 15.6 μmole of chromophore formed/mi

Question: And the “Myeloperoxidase Activity” value ([3]; 0.1 mg/animal/day minipump)?
Answer: 17.0 ± 9.6 μmole of chromophore formed/mi

Question: And the “Myeloperoxidase Activity” value ([3]; 1.0 mg/animal/day minipump)?
Answer: 14.7 ± 13.3 μmole of chromophore formed/mi

Question: And the “chemotactic migration of neutrophils to LTB4” value (neutrophils [4])?
Answer: effectively inhibited

Question: What about the “chemotactic migration of neutrophils to f-Met-Leu-Phe” value (neutrophils [5]) of the same sequence?
Answer: effectively inhibited

Question: What about the “LTB4 (pg in peritoneal lavage)” value [6] of the same sequence?
Answer: 16.8 ± 11.5 pg

Question: What about the “PGE2 (pg in peritoneal lavage)” value [6] of the same sequence?
Answer: 13.1 ± 6.9 pg

Question: And the “anti-collagen antibody reduction in serum” value ([7]; 4 wks post-immunization, high dose group, p=0.028, FIG. 14)?
Answer: statistically significant

Question: And the “effects on synovitis and pannus (histopathology)” value ([7]; both high and low doses, FIG. 13)?
Answer: not significant

Question: What about the “disease-induced loss of joint architecture (histopathology)” value ([7]; both high and low doses, p≤0.05, FIG. 13) of the same sequence?
Answer: significantly reducing

Question: What about the “spleen cell response to Con A and to LPS” value ([7]; cells from treated mice) of the same sequence?
Answer: neither immunosuppression nor immunoactivation

Question: What about the “final incidence of CIA” value ([7]; high dose, 100 mg/kg daily) of the same sequence?
Answer: 50%

Question: And the Maximum paw swelling ([7]; low and high dose)?
Answer: not influenced

Question: And the “final incidence of CIA” value ([7]; low dose, 10 mg/kg daily)?
Answer: 62.5%

Question: And the “involved paws in remission at the conclusion of the trial” value ([7]; low dose, 10 mg/kg daily)?
Answer: 25%

Question: What about the “number of involved paws” value ([7]; low dose, 10 mg/kg daily, p=0.035 vs control, FIG. 11) of the same sequence?
Answer: significantly fewer paws
